Reference: the CombiSolv-Exp solvation set (Vermeire and Green 2021)

Assay: solvent given as SMILES

C=CC1(C)CCC(=C(C)C)CC1C(=C)C (stereo not given)
Details	solvation free energy, 298 K [kcal/mol]
in O	-0.35

CCC(C)(O)CC
Details	solvation free energy, 298 K [kcal/mol]
in O	-4.2

CCCCOCCOC(=O)c1ccccc1C(=O)OCCOCCCC
Details	solvation free energy, 298 K [kcal/mol]
in O	-12.8

CCCCC(O)CC (stereo not given)
Details	solvation free energy, 298 K [kcal/mol]
in O	-3.94

Clc1ccccc1Cl
Details	solvation free energy, 298 K [kcal/mol]
in C1CCOC1	-7.11
in C1COCCO1	-7.01
in CCCCCC	-6.14
in CCCCCCC	-6.01
in CCCCCCCCCCCCCCCC	-6.04
in CCCCCCCCO	-5.95
in CN(C)C=O	-6.82
in ClC(Cl)(Cl)Cl	-6.79
in N#Cc1ccccc1	-6.82
in NC=O	-4.55
in O	-1.4

CCC=CCC
Details	solvation free energy, 298 K [kcal/mol]
in C=CCCCCCCCCCCCCCC	-3.51
in O	1.62

CN(C)C(=O)Nc1ccc(Cl)c(Cl)c1
Details	solvation free energy, 298 K [kcal/mol]
in CC(C)CCO	-14.6
in CCCC(C)O	-14.5
in CCCCCl	-13.3
in CCCCOC(C)=O	-14.5
in CCCCOCCCC	-12.6
in CCOC(C)=O	-14.6
in COC(C)=O	-14.6
in ClC(Cl)(Cl)Cl	-12.4
in ClC(Cl)Cl	-14.5
in ClCCCl	-14.3
in ClCCl	-14.2
in Clc1ccccc1	-13.6
in O	-10.9

c1cc2c3c(cccc3c1)CC2
Details	solvation free energy, 298 K [kcal/mol]
in C1CCOC1	-9.86
in C1COCCO1	-9.66
in CC(C)(C)O	-8.39
in CC(C)CC(C)(C)C	-8.67
in CC(C)CC(C)O	-8.46
in CC(C)CCCC(C)CCO	-8.69
in CC(C)CCO	-8.43
in CC(C)CO	-8.4
in CC(C)O	-8.38
in CC(C)OC(C)C	-9.11
in CCC(C)(C)O	-8.61
in CCC(C)O	-8.46
in CCCC(C)CO	-8.55
in CCCC(C)O	-8.52
in CCCCC(CC)CO	-8.66
in CCCCCC	-8.86
in CCCCCCC	-8.89
in CCCCCCCC	-8.9
in CCCCCCCCC=CCCCCCCCC(=O)OCC(COC(=O)CCCCCCCC=CCCCCCCCC)OC(=O)CCCCCCCC=CCCCCCCCC	-9.22
in CCCCCCCCCC	-8.88
in CCCCCCCCCCO	-8.8
in CCCCCCCCO	-8.61
in CCCCCCCO	-8.75
in CCCCCCO	-8.72
in CCCCCO	-8.68
in CCCCO	-8.6
in CCCCOC(C)=O	-9.43
in CCCCOCCCC	-9.18
in CCCO	-8.53
in CCO	-8.4
in CCOC(C)=O	-9.44
in CCOCC	-9.37
in CNC=O	-8.5
in CO	-8.21
in COC(C)(C)C	-9.25
in COC(C)=O	-9.32
in Cc1ccc(C)cc1	-9.57
in Cc1ccccc1C	-9.78
in ClC(Cl)(Cl)Cl	-9.63
in ClC(Cl)Cl	-9.84
in ClCCCl	-9.78
in O	-3.18

CCCCCCCC=O
Details	solvation free energy, 298 K [kcal/mol]
in CCCCCCCCCCCCCCCC	-5.82
in CCCCCCCCO	-7.26
in NC=O	-4.31
in O	-2.29

Cc1ccccc1C(=O)N(O)c1ccccc1C
Details	solvation free energy, 298 K [kcal/mol]
in O	-11.2

C=C(C)C1CCC2(C)CCCC(=C)C2C1 (stereo not given)
Details	solvation free energy, 298 K [kcal/mol]
in O	-0.05

CC(C)CC(C)C
Details	solvation free energy, 298 K [kcal/mol]
in Brc1ccccc1	-3.81
in C1CCCCC1	-4.32
in C1CCOC1	-4.15
in C1COCCO1	-3.39
in C=CCCCC	-4.22
in C=CCCCCCC	-4.16
in C=CCCCCCCCC	-4.06
in C=CCCCCCCCCCCCCCC	-3.72
in CC1COC(=O)O1	-2.21
in CC#N	-2.78
in CC(=O)N(C)C	-2.97
in CC(=O)O	-3.06
in CC(=O)c1ccccc1	-3.18
in CC(C)=O	-3.45
in CC(C)CC(C)(C)C	-4.15
in CC(C)CCCC(C)CCCC(C)CCCCC(C)CCCC(C)CCCC(C)C	-3.68
in CC(C)CCO	-3.6
in CC(C)O	-3.45
in CC(C)OC(C)C	-4.18
in CCBr	-4.27
in CCC#N	-3.18
in CCC(C)=O	-3.66
in CCCC#N	-3.41
in CCCC(=O)OCC	-3.87
in CCCC(C)=O	-3.74
in CCCCC	-4.33
in CCCCCC	-4.35
in CCCCCC(C)=O	-3.75
in CCCCCCC	-4.22
in CCCCCCCC	-4.14
in CCCCCCCCC	-4.1
in CCCCCCCCCC	-4.06
in CCCCCCCCCCCC	-3.94
in CCCCCCCCCCCCCCCC	-3.85
in CCCCCCCCCCCCO	-3.49
in CCCCCCCCO	-3.57
in CCCCCCOC(C)=O	-3.87
in CCCCO	-3.5
in CCCCOC(C)=O	-3.81
in CCCCOCCCC	-4.13
in CCCO	-3.39
in CCN(CC)CC	-4.26
in CCO	-3.34
in CCOC(C)=O	-3.69
in CCOCC	-4.19
in CCOCCOCCOCC	-3.59
in CCOc1ccccc1	-3.64
in CN1CCCC1=O	-2.82
in CN(C)C=O	-2.82
in CN(C)P(=O)(N(C)C)N(C)C	-3.23
in CNC=O	-2.49
in CO	-2.99
in COC(C)=O	-3.51
in COCCO	-2.84
in COc1ccccc1	-3.57
in CS(C)=O	-2.03
in Cc1ccc(C)cc1	-4.07
in Cc1ccccc1	-4.07
in Cc1ccccn1	-3.66
in ClC(Cl)(Cl)Cl	-4.29
in ClC(Cl)Cl	-4.17
in ClCCCl	-3.63
in ClCCl	-3.96
in Clc1ccccc1	-4.04
in FC(F)(F)C(F)(F)C(F)(F)C(F)(F)C(F)(F)C(F)(F)C(F)(F)C(F)(F)F	-2.77
in FC(F)(F)C(F)(F)C(F)(F)C(F)(F)C(F)(F)C(F)(F)F	-2.85
in Fc1ccccc1	-4.04
in ICI	-2.14
in N#Cc1ccccc1	-3.27
in Nc1ccccc1	-2.55
in O	2.86
in O=C1CCCCC1	-3.56
in O=C1CCCO1	-2.36
in OCc1ccccc1	-2.76
in S=C=S	-4.19
in c1ccccc1	-4.03
in c1ccncc1	-3.4

CN(C)C
Details	solvation free energy, 298 K [kcal/mol]
in CC(C)=O	-2.56
in CCCCCC	-2.63
in CCCCCCC	-2.44
in CCCCO	-2.91
in CCCO	-3.49
in CCO	-3.64
in CN(C)C=O	-2.41
in ClC(Cl)(Cl)Cl	-2.89
in ClC(Cl)Cl	-3.9
in O	-3.2

OCC1OC(O)C(O)C(O)C1O (stereo not given)
Details	solvation free energy, 298 K [kcal/mol]
in O	-25.5

Fc1c(F)c(F)c(F)c(F)c1F
Details	solvation free energy, 298 K [kcal/mol]
in C1CCOC1	-4.5
in C1COCCO1	-4.23
in CC(C)CC(C)(C)C	-3.53
in CC(C)OC(C)C	-4.13
in CCCCO	-3.46
in CCOCC	-4.35
in O	0.1

CC(=O)NS(=O)(=O)c1ccc(N)cc1
Details	solvation free energy, 298 K [kcal/mol]
in O	-18.4

CC12C=CC(C1)C(C)(C)C2 (stereo not given)
Details	solvation free energy, 298 K [kcal/mol]
in O	0.64

O=C(O)CCCCCC(=O)O
Details	solvation free energy, 298 K [kcal/mol]
in CCO	-14.2
in CCOCC	-12.8

Cc1c[nH]c2ccccc12
Details	solvation free energy, 298 K [kcal/mol]
in O	-5.88

COc1ncnc(NS(=O)(=O)c2ccc(N)cc2)c1OC
Details	solvation free energy, 298 K [kcal/mol]
in O	-19.6

O=C1NC(=O)C(c2ccccc2)(c2ccccc2)N1
Details	solvation free energy, 298 K [kcal/mol]
in O	-16.7

O=C1NC(=O)c2ccccc21
Details	solvation free energy, 298 K [kcal/mol]
in O	-9.61

CCCCCCCCCCCCCCCCCCCCCCCCCC
Details	solvation free energy, 298 K [kcal/mol]
in CC(=O)N(C)C	-17.6
in CC(C)(C)O	-15.8
in CN(C)C=O	-17.8
in O	5.59
